Experimental data taken from ChEMBL document CHEMBL2062425, “Synthesis and in vitro evaluation of α-synuclein ligands” (Bioorg Med Chem, 2012).

Target: Alpha-synuclein (Homo sapiens, UniProt P37840)
Test: biochemical

In the case of `c1ccc2c(c1)Nc1ccccc1S2` [PHENOTHIAZINE], the IC50 is reported as 26 µM and the Ki is reported as > 0.5 µM.
